What follows are molecules tested against T1, CIB1 and αIIb interaction (GST-CIB1 : F-αIIb peptide) (Homo sapiens, UniProt Q99828) (assay: FP assay, 384-well format (screen)). Conditions: F-αIIb peptide.
T1 construct: made in house; host or cells: BL-21 plus RIL cells (E. coli)
T1 sequence (Q99828 1-191): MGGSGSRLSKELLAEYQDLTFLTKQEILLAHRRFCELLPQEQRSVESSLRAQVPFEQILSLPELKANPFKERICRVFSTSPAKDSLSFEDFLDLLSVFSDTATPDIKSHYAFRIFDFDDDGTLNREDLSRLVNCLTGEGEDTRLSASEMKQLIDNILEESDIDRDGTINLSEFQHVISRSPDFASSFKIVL
Format: binding
Parameters: 384-well SCREEN Efficacy (%): concentration or dose not given beside the values

Row | SMILES | 384-well SCREEN Efficacy (%)
1 | Cc1ccc(S(=O)(=O)Nc2nn3c(=O)c4ccccc4nc3s2)cc1C.O=C(O)C(F)(F)F [NCGC00187578-01] | 27
2 | O=C(O)C(F)(F)F.O=c1c2ccccc2nc2sc(NS(=O)(=O)c3ccc4c(c3)CCC4)nn12 [NCGC00187579-01] | 43
3 | O=C(O)C(F)(F)F.O=c1c2ccccc2nc2sc(Nc3cccc(N4CCN5CCCCC5C4)c3)nn12 (stereo not drawn) [NCGC00189229-01] | 42

Same assay, conditions: F-αIIb peptide; YES/NO

Row | SMILES | 384-well SCREEN Confirm?
4 | O=C(O)C(F)(F)F.O=c1c2ccccc2nc2sc(NS(=O)(=O)c3ccc4c(c3)CCC4)nn12 [NCGC00187579-01] | YES
5 | O=C(O)C(F)(F)F.O=c1c2ccccc2nc2sc(Nc3cccc(N4CCN5CCCCC5C4)c3)nn12 (stereo not drawn) [NCGC00189229-01] | YES

Same assay, conditions: F-αIIb peptide; read-out: 384-well SCREEN IC50

Row | SMILES | IC50 [µM]
6 | Cc1ccc(S(=O)(=O)Nc2nn3c(=O)c4ccccc4nc3s2)cc1C.O=C(O)C(F)(F)F [NCGC00187578-01] | > 120
7 | O=C(O)C(F)(F)F.O=c1c2ccccc2nc2sc(NS(=O)(=O)c3ccc4c(c3)CCC4)nn12 [NCGC00187579-01] | 44.7
8 | O=C(O)C(F)(F)F.O=c1c2ccccc2nc2sc(Nc3cccc(N4CCN5CCCCC5C4)c3)nn12 (stereo not drawn) [NCGC00189229-01] | 120

Each molecule was assayed against T2, GST-CIB1 : F-scrambled peptide (Homo sapiens, UniProt Q99828) (assay: FP scrambled-peptide counter screen, 1536-well format). Conditions: scrambled-peptide counterscreen.
T2 construct: made in house; host or cells: BL-21 plus RIL cells (E. coli)
T2 sequence (Q99828 1-191): T1 sequence (Q99828 1-191)
Format: binding

Row | SMILES | COUNTERSCREEN Efficacy (%)
9 | Cc1ccc(S(=O)(=O)Nc2nn3c(=O)c4ccccc4nc3s2)cc1C.O=C(O)C(F)(F)F [NCGC00187578-01] | 39
10 | O=C(O)C(F)(F)F.O=c1c2ccccc2nc2sc(NS(=O)(=O)c3ccc4c(c3)CCC4)nn12 [NCGC00187579-01] | 62
11 | O=C(O)C(F)(F)F.O=c1c2ccccc2nc2sc(Nc3cccc(N4CCN5CCCCC5C4)c3)nn12 (stereo not drawn) [NCGC00189229-01] | -28

Same assay, conditions: scrambled-peptide counterscreen, YES/NO call

Row | SMILES | COUNTERSCREEN Confirm?
12 | Cc1ccc(S(=O)(=O)Nc2nn3c(=O)c4ccccc4nc3s2)cc1C.O=C(O)C(F)(F)F [NCGC00187578-01] | YES
13 | O=C(O)C(F)(F)F.O=c1c2ccccc2nc2sc(NS(=O)(=O)c3ccc4c(c3)CCC4)nn12 [NCGC00187579-01] | YES
14 | O=C(O)C(F)(F)F.O=c1c2ccccc2nc2sc(Nc3cccc(N4CCN5CCCCC5C4)c3)nn12 (stereo not drawn) [NCGC00189229-01] | YES

Same assay, conditions: scrambled-peptide counterscreen, qHTS curve class

Row | SMILES | COUNTERSCREEN Curve Class
15 | Cc1ccc(S(=O)(=O)Nc2nn3c(=O)c4ccccc4nc3s2)cc1C.O=C(O)C(F)(F)F [NCGC00187578-01] | 4
16 | O=C(O)C(F)(F)F.O=c1c2ccccc2nc2sc(Nc3cccc(N4CCN5CCCCC5C4)c3)nn12 (stereo not drawn) [NCGC00189229-01] | -2.4

Same assay, conditions: scrambled-peptide counterscreen; read-out: COUNTERSCREEN IC50

Row | SMILES | IC50 [µM]
17 | O=C(O)C(F)(F)F.O=c1c2ccccc2nc2sc(NS(=O)(=O)c3ccc4c(c3)CCC4)nn12 [NCGC00187579-01] | 35.5
18 | O=C(O)C(F)(F)F.O=c1c2ccccc2nc2sc(Nc3cccc(N4CCN5CCCCC5C4)c3)nn12 (stereo not drawn) [NCGC00189229-01] | 56.2

The molecules below were run against T3, CIB1 and αIIb interaction (CIB1-GST : F-αIIb peptide) (Homo sapiens, UniProt Q99828) (assay: FP assay, 1536-well qHTS format (primary and confirmatory screen)). Conditions: confirmatory screen, YES/NO call.
T3 construct: made in house; host or cells: BL-21 plus RIL cells (E. coli)
T3 sequence (Q99828 1-191): T1 sequence (Q99828 1-191)
Format: binding

Row | SMILES | CONFIRMATORY SCREEN Confirm?
19 | Cc1ccc(S(=O)(=O)Nc2nn3c(=O)c4ccccc4nc3s2)cc1C.O=C(O)C(F)(F)F [NCGC00187578-01] | YES
20 | O=C(O)C(F)(F)F.O=c1c2ccccc2nc2sc(NS(=O)(=O)c3ccc4c(c3)CCC4)nn12 [NCGC00187579-01] | YES
21 | O=C(O)C(F)(F)F.O=c1c2ccccc2nc2sc(Nc3cccc(N4CCN5CCCCC5C4)c3)nn12 (stereo not drawn) [NCGC00189229-01] | YES

Same assay, conditions: confirmatory screen, qHTS curve class; negative sign = inhibitory curve

Row | SMILES | CONFIRMATORY SCREEN Curve Class
22 | Cc1ccc(S(=O)(=O)Nc2nn3c(=O)c4ccccc4nc3s2)cc1C.O=C(O)C(F)(F)F [NCGC00187578-01] | -2.2
23 | O=C(O)C(F)(F)F.O=c1c2ccccc2nc2sc(NS(=O)(=O)c3ccc4c(c3)CCC4)nn12 [NCGC00187579-01] | -1.2
24 | O=C(O)C(F)(F)F.O=c1c2ccccc2nc2sc(Nc3cccc(N4CCN5CCCCC5C4)c3)nn12 (stereo not drawn) [NCGC00189229-01] | -1.2

Same assay, conditions: confirmatory screen; negative = inhibition

Row | SMILES | CONFIRMATORY SCREEN Efficacy (%)
25 | Cc1ccc(S(=O)(=O)Nc2nn3c(=O)c4ccccc4nc3s2)cc1C.O=C(O)C(F)(F)F [NCGC00187578-01] | -46
26 | O=C(O)C(F)(F)F.O=c1c2ccccc2nc2sc(NS(=O)(=O)c3ccc4c(c3)CCC4)nn12 [NCGC00187579-01] | -35
27 | O=C(O)C(F)(F)F.O=c1c2ccccc2nc2sc(Nc3cccc(N4CCN5CCCCC5C4)c3)nn12 (stereo not drawn) [NCGC00189229-01] | -50

Same assay, conditions: confirmatory screen; read-out: CONFIRMATORY SCREEN IC50

Row | SMILES | IC50 [µM]
28 | Cc1ccc(S(=O)(=O)Nc2nn3c(=O)c4ccccc4nc3s2)cc1C.O=C(O)C(F)(F)F [NCGC00187578-01] | 11.2
29 | O=C(O)C(F)(F)F.O=c1c2ccccc2nc2sc(NS(=O)(=O)c3ccc4c(c3)CCC4)nn12 [NCGC00187579-01] | 6.3
30 | O=C(O)C(F)(F)F.O=c1c2ccccc2nc2sc(Nc3cccc(N4CCN5CCCCC5C4)c3)nn12 (stereo not drawn) [NCGC00189229-01] | 7.9

Same assay, conditions: qHTS FP screen hits, Table S2; negative = inhibition

Row | SMILES | Efficacy (%)
31 | O=C(O)C(F)(F)F.O=c1c2ccccc2nc2sc(Nc3cccc(N4CCN5CCCCC5C4)c3)nn12 (stereo not drawn) [NCGC00189229-01] | -20

Same assay, conditions: qHTS FP screen hits, Table S2; read-out: IC50

Row | SMILES | IC50 [µM]
32 | O=C(O)C(F)(F)F.O=c1c2ccccc2nc2sc(Nc3cccc(N4CCN5CCCCC5C4)c3)nn12 (stereo not drawn) [NCGC00189229-01] | 2.5

Same assay, conditions: qHTS primary screen hits, Table S2; negative = inhibition

Row | SMILES | Efficacy (%)
33 | Cc1ccc(S(=O)(=O)Nc2nn3c(=O)c4ccccc4nc3s2)cc1C.O=C(O)C(F)(F)F [NCGC00187578-01] | -22
34 | O=C(O)C(F)(F)F.O=c1c2ccccc2nc2sc(NS(=O)(=O)c3ccc4c(c3)CCC4)nn12 [NCGC00187579-01] | -32

Same assay, conditions: qHTS primary screen hits, Table S2; negative sign = inhibitory curve

Row | SMILES | Curve Class
35 | O=C(O)C(F)(F)F.O=c1c2ccccc2nc2sc(NS(=O)(=O)c3ccc4c(c3)CCC4)nn12 [NCGC00187579-01] | -1.4

Same assay, conditions: qHTS primary screen hits, Table S2; negative sign = inhibitory curve; several classes where COUNT > 1

Row | SMILES | Curve Class
36 | Cc1ccc(S(=O)(=O)Nc2nn3c(=O)c4ccccc4nc3s2)cc1C.O=C(O)C(F)(F)F [NCGC00187578-01] | -1.4

Same assay, conditions: qHTS primary screen hits, Table S2; read-out: IC50

Row | SMILES | IC50 [µM]
37 | Cc1ccc(S(=O)(=O)Nc2nn3c(=O)c4ccccc4nc3s2)cc1C.O=C(O)C(F)(F)F [NCGC00187578-01] | 14.1
38 | O=C(O)C(F)(F)F.O=c1c2ccccc2nc2sc(NS(=O)(=O)c3ccc4c(c3)CCC4)nn12 [NCGC00187579-01] | 2.8

Each molecule was assayed against T2, GST-CIB1 : F-scrambled peptide (assay: FP scrambled-peptide counter screen, 384-well format). Conditions: F-scrambled peptide.
Format: binding

Row | SMILES | 384-well COUNTERSCREEN Efficacy (%)
39 | Cc1ccc(S(=O)(=O)Nc2nn3c(=O)c4ccccc4nc3s2)cc1C.O=C(O)C(F)(F)F [NCGC00187578-01] | 12
40 | O=C(O)C(F)(F)F.O=c1c2ccccc2nc2sc(NS(=O)(=O)c3ccc4c(c3)CCC4)nn12 [NCGC00187579-01] | 28
41 | O=C(O)C(F)(F)F.O=c1c2ccccc2nc2sc(Nc3cccc(N4CCN5CCCCC5C4)c3)nn12 (stereo not drawn) [NCGC00189229-01] | 42

Same assay, conditions: F-scrambled peptide; *: Curve in opposite direction

Row | SMILES | 384-well COUNTERSCREEN Confirm?
42 | O=C(O)C(F)(F)F.O=c1c2ccccc2nc2sc(NS(=O)(=O)c3ccc4c(c3)CCC4)nn12 [NCGC00187579-01] | YES

Same assay, conditions: F-scrambled peptide; read-out: 384-well COUNTERSCREEN IC50

Row | SMILES | IC50 [µM]
43 | Cc1ccc(S(=O)(=O)Nc2nn3c(=O)c4ccccc4nc3s2)cc1C.O=C(O)C(F)(F)F [NCGC00187578-01] | > 120
44 | O=C(O)C(F)(F)F.O=c1c2ccccc2nc2sc(NS(=O)(=O)c3ccc4c(c3)CCC4)nn12 [NCGC00187579-01] | > 120
45 | O=C(O)C(F)(F)F.O=c1c2ccccc2nc2sc(Nc3cccc(N4CCN5CCCCC5C4)c3)nn12 (stereo not drawn) [NCGC00189229-01] | 17.8

From article PMC11249646, “Small-Molecule Disruptors of the Interaction between Calcium- and Integrin-Binding Protein 1 and Integrin αIIbβ3 as Novel Antiplatelet Agents” (ACS Pharmacology & Translational Science, 2024)
